According to PubChem BioAssay (NCI):
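Growth conditions: 96-well plates. Treatment: test compound, 48 hours, 5 concentrations. Analysis: linear interpolation between bracketing concentrations; unreached endpoints set to highest concentration. GI50 is the concentration that inhibits growth by half. Definition used: TGI = concentration required for complete inhibition of growth.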

Tests used:
Test in all cases: NCI tumour cell line growth inhibition, 48 h
[1] = system: OVCAR-3 ovarian
[2] = system: BT-549 breast
[3] = system: K-562 leukemia
[4] = system: SNB-75 CNS
[5] = system: ACHN renal
[6] = system: U251 CNS
[7] = system: NCI-H226 lung
[8] = system: MCF7 breast
[9] = system: HT29 colon
[10] = system: SK-MEL-28 melanoma
[11] = system: OVCAR-4 ovarian
[12] = system: HS 578T breast
[13] = system: LOX IMVI melanoma
[14] = system: UACC-62 melanoma
[15] = system: KM12 colon
[16] = system: OVCAR-8 ovarian
[17] = system: SF-539 CNS
[18] = system: TK-10 renal
[19] = system: M14 melanoma
[20] = system: NCI-H522 lung
[21] = system: MALME-3M melanoma
[22] = system: UO-31 renal
[23] = system: A498 renal
[24] = system: NCI-H460 lung
[25] = system: HCT-15 colon
[26] = system: UACC-257 melanoma
[27] = system: PC-3 prostate
[28] = system: COLO 205 colon
[29] = system: HOP-62 NSCLC
[30] = system: HOP-92 NSCLC
[31] = system: T-47D breast
[32] = system: A549 NSCLC
[33] = system: SK-MEL-2 melanoma
[34] = system: SF-295 CNS
[35] = system: SK-MEL-5 melanoma
[36] = system: SR leukemia
[37] = system: HL-60(TB) leukemia
[38] = system: SNB-19 CNS
[39] = system: MDA-MB-231 breast
[40] = system: SW-620 colon
[41] = system: SN12C renal
[42] = system: MOLT-4 leukemia
[43] = system: NCI/ADR-RES ovarian
[44] = system: IGROV1 ovarian
[45] = system: CCRF-CEM leukemia
[46] = system: CAKI-1 renal
[47] = system: SK-OV-3 ovarian
[48] = system: 786-0 renal
[49] = system: EKVX NSCLC
[50] = system: RXF 393 renal
[51] = system: DU-145 prostate
[52] = system: NCI-H23 lung
[53] = system: HCT-116 colon
[54] = system: HCC-2998 colon
[55] = system: RPMI-8226 leukemia
[56] = system: SF-268 CNS
[57] = system: MDA-MB-435
[58] = system: OVCAR-5 ovarian

Cc1cc(Nc2cc(N3CCN(C)CC3)nc(Sc3ccc(NC(=O)C4CC4)cc3)n2)n[nH]1
GI50 [1]: 3.46 µM
TGI [1]: > 10 µM
GI50 [2]: 5.89 µM
TGI [2]: > 10 µM
GI50 [3]: 0.232 µM
TGI [3]: > 10 µM
GI50 [4]: 2.71 µM
TGI [4]: > 10 µM
GI50 [5]: > 10 µM
TGI [5]: > 10 µM
GI50 [6]: 3.05 µM
TGI [6]: > 10 µM
GI50 [7]: 0.737 µM
TGI [7]: > 10 µM
GI50 [8]: 0.492 µM
TGI [8]: > 10 µM
GI50 [9]: 1.18 µM
TGI [9]: > 10 µM
GI50 [10]: 3.47 µM
TGI [10]: > 10 µM
GI50 [11]: > 10 µM
TGI [11]: > 10 µM
GI50 [12]: 3.46 µM
TGI [12]: > 10 µM
GI50 [13]: 0.424 µM
TGI [13]: 3.87 µM
GI50 [14]: 1.53 µM
TGI [14]: > 10 µM
GI50 [15]: 0.0461 µM
TGI [15]: > 10 µM
GI50 [16]: 7.54 µM
TGI [16]: > 10 µM
GI50 [17]: 1.92 µM
TGI [17]: > 10 µM
GI50 [18]: > 10 µM
TGI [18]: > 10 µM
GI50 [19]: 1.48 µM
TGI [19]: > 10 µM
GI50 [20]: 4.16 µM
TGI [20]: > 10 µM
GI50 [21]: 4.85 µM
TGI [21]: > 10 µM
GI50 [22]: 3.54 µM
TGI [22]: > 10 µM
GI50 [23]: 1.74 µM
TGI [23]: 8.38 µM
GI50 [24]: 0.537 µM
TGI [24]: > 10 µM
GI50 [25]: 5.38 µM
TGI [25]: > 10 µM
GI50 [26]: 3.52 µM
TGI [26]: > 10 µM
GI50 [27]: 4.24 µM
TGI [27]: > 10 µM
GI50 [28]: 0.0456 µM
TGI [28]: 7.32 µM
GI50 [29]: 2.99 µM
TGI [29]: > 10 µM
GI50 [30]: 0.989 µM
TGI [30]: 5.77 µM
GI50 [31]: > 10 µM
TGI [31]: > 10 µM
GI50 [32]: 2.18 µM
TGI [32]: > 10 µM
GI50 [33]: 5.51 µM
TGI [33]: > 10 µM
GI50 [34]: 1.28 µM
TGI [34]: > 10 µM
GI50 [35]: 3.19 µM
TGI [35]: > 10 µM
GI50 [36]: 0.0594 µM
TGI [36]: > 10 µM
GI50 [37]: 0.283 µM
TGI [37]: > 10 µM
GI50 [38]: > 10 µM
TGI [38]: > 10 µM
GI50 [39]: 3.98 µM
TGI [39]: > 10 µM
GI50 [40]: 1.08 µM
TGI [40]: > 10 µM
GI50 [41]: 3.59 µM
TGI [41]: > 10 µM
GI50 [42]: 4.21 µM
TGI [42]: > 10 µM
GI50 [43]: > 10 µM
TGI [43]: > 10 µM
GI50 [44]: 4.82 µM
TGI [44]: > 10 µM
GI50 [45]: 0.00613 µM
TGI [45]: > 10 µM
GI50 [46]: 4.27 µM
TGI [46]: > 10 µM
GI50 [47]: > 10 µM
TGI [47]: > 10 µM
GI50 [48]: > 10 µM
TGI [48]: > 10 µM
GI50 [49]: > 10 µM
TGI [49]: > 10 µM
GI50 [50]: 2.17 µM
TGI [50]: > 10 µM
GI50 [51]: > 10 µM
TGI [51]: > 10 µM
GI50 [52]: 3.19 µM
TGI [52]: > 10 µM
GI50 [53]: 0.273 µM
TGI [53]: > 10 µM
GI50 [54]: 5.66 µM
TGI [54]: > 10 µM
GI50 [55]: 4.02 µM
TGI [55]: > 10 µM
GI50 [56]: 5.52 µM
TGI [56]: > 10 µM
GI50 [57]: 2.11 µM
TGI [57]: > 10 µM

CCOC(=O)c1ccc2c(c1)[n+](=O)c(C(C)=O)c(C(F)(F)F)n2[O-]
GI50 [1]: 1.49 µM
TGI [1]: 2.93 µM
GI50 [2]: 1.54 µM
TGI [2]: 3.21 µM
GI50 [3]: 1.16 µM
TGI [3]: 2.52 µM
GI50 [4]: 1.55 µM
TGI [4]: 3 µM
GI50 [5]: 1.59 µM
TGI [5]: 3.01 µM
GI50 [6]: 1.48 µM
TGI [6]: 3.02 µM
GI50 [7]: 1.8 µM
TGI [7]: 3.93 µM
GI50 [8]: 1.24 µM
TGI [8]: 2.61 µM
GI50 [9]: 1.58 µM
TGI [9]: 3.11 µM
GI50 [10]: 2.87 µM
TGI [10]: 10.1 µM
GI50 [11]: 1.36 µM
TGI [11]: 3.22 µM
GI50 [12]: 1.4 µM
TGI [12]: 3.96 µM
GI50 [13]: 1.47 µM
TGI [13]: 3.12 µM
GI50 [14]: 1.49 µM
TGI [14]: 3.46 µM
GI50 [15]: 1.47 µM
TGI [15]: 2.89 µM
GI50 [16]: 2.42 µM
TGI [16]: 9.25 µM
GI50 [17]: 1.71 µM
TGI [17]: 3.31 µM
GI50 [18]: 1.39 µM
TGI [18]: 3.25 µM
GI50 [19]: 1.7 µM
TGI [19]: 3.67 µM
GI50 [20]: 1.8 µM
TGI [20]: 3.84 µM
GI50 [21]: 1.4 µM
TGI [21]: 2.83 µM
GI50 [22]: 1.49 µM
TGI [22]: 3.15 µM
GI50 [23]: 1.33 µM
TGI [23]: 3.16 µM
GI50 [24]: 1.46 µM
TGI [24]: 2.86 µM
GI50 [25]: 1.4 µM
TGI [25]: 3.22 µM
GI50 [26]: 1.76 µM
TGI [26]: 3.5 µM
GI50 [27]: 0.885 µM
TGI [27]: 2.38 µM
GI50 [28]: 1.54 µM
TGI [28]: 3 µM
GI50 [29]: 1.66 µM
TGI [29]: 3.54 µM
GI50 [30]: 1.4 µM
TGI [30]: 2.86 µM
GI50 [31]: 1.29 µM
TGI [31]: 3.06 µM
GI50 [32]: 2.04 µM
TGI [32]: 4.39 µM
GI50 [33]: 1.89 µM
TGI [33]: 5.22 µM
GI50 [34]: 1.37 µM
TGI [34]: 3.01 µM
GI50 [35]: 1.5 µM
TGI [35]: 2.84 µM
GI50 [36]: 0.197 µM
TGI [36]: 0.625 µM
GI50 [37]: 1.44 µM
TGI [37]: 3.08 µM
GI50 [38]: 1.73 µM
TGI [38]: 4.18 µM
GI50 [39]: 1.75 µM
TGI [39]: 3.62 µM
GI50 [40]: 1.52 µM
TGI [40]: 3.26 µM
GI50 [41]: 2.01 µM
TGI [41]: 4.55 µM
GI50 [58]: 1.56 µM
TGI [58]: 3.22 µM
GI50 [42]: 1.31 µM
TGI [42]: 3.97 µM
GI50 [43]: 1.89 µM
TGI [43]: 5.98 µM
GI50 [44]: 1.46 µM
TGI [44]: 3.42 µM
GI50 [45]: 1.68 µM
TGI [45]: 4.59 µM
GI50 [46]: 1.39 µM
TGI [46]: 2.94 µM
GI50 [47]: 1.64 µM
TGI [47]: 3.34 µM
GI50 [48]: 1.67 µM
TGI [48]: 3.21 µM
GI50 [49]: 1.82 µM
TGI [49]: 3.96 µM
GI50 [50]: 2.15 µM
TGI [50]: 5.77 µM
GI50 [51]: 1.57 µM
TGI [51]: 2.96 µM
GI50 [52]: 1.54 µM
TGI [52]: 3.43 µM
GI50 [53]: 1.39 µM
TGI [53]: 3.34 µM
GI50 [54]: 1.05 µM
TGI [54]: 2.45 µM
GI50 [55]: 1.45 µM
TGI [55]: 4 µM
GI50 [56]: 1.49 µM
TGI [56]: 2.93 µM
GI50 [57]: 1.61 µM
TGI [57]: 3.21 µM
